Results from patent US10662204B2 (PFIZER INC., priority 2018, dated 2020).

Legend:
KRAS G12C = KRAS G12C (Homo sapiens, UniProt P01116, G12C); assay: Cell Activity Assay: accumulation of GDP-bound KRAS G12C in MIAPaCa-2 cells (Raf-1 RBD capture, MSD readout); format: cell-based; design: endogenous in cells; host or cells: MIAPaCa-2; settings: 6 hours, assay limit is 30.00
Outline: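 MIAPaCa-2 cells exposed 6 h at 37 °C to 3-fold compound dilutions (0.3% DMSO final), then lysed. Active GTP-KRAS captured on Raf-1 RBD-coated plates, detected with anti-pan-Ras and SULFO-TAG secondary by MSD electrochemiluminescence. Signal normalized to DMSO and maximum inhibition; IC50 from 4-parameter fit.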

[1] = target: T1, GDP-loaded KRAS (1-169) G12C, C51S, C80L, C118S (Homo sapiens, UniProt P01116, C118S/C51S/C80L/G12C); assay: Mass Spectrometry Reactivity Assay (MSRA): covalent adduct of compound and KRAS G12C, Percent Modification; format: binding; settings: for MSRA (% modification) 5.0 μM 0.25 hr / MSRA (% modification) 5.0 μM 0.017 hr: 5.0 μM compound
T1 construct: GDP-loaded KRAS (1-169) G12C, C51S, C80L, C118S
Outline: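 GDP-loaded KRAS(1-169) G12C/C51S/C80L/C118S at 5 μM in 25 mM Hepes pH 7.5, 200 mM NaCl, 5% glycerol incubated at RT with compound (typically 5 or 10 μM final, 1% DMSO). Quenched in formic acid at 1-60 min; intact-protein LC-TOF MS gives % modification = modified/(modified+unmodified).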

Row | SMILES | IC50 (KRAS G12C) [µM] | MSRA (% modification) 5.0 μM 0.25 hr ([1]; 0.25 hr) [%] | MSRA (% modification) 5.0 μM 0.017 hr [1] [%] | MSRA (% modification) 10 μM 0.25 hr ([1]; 10 μM compound, 0.25 hr) [%] | MSRA (% modification) 10 μM 0.50 hr ([1]; 10 μM compound) [%]
1 | C=CC(=O)N1CCN(c2nc(Oc3cccnc3CC)nc3c(Oc4c(Cl)c(F)cc5[nH]ncc45)nccc23)CC1 [Example 03I, 1-(4-{8-[(5-chloro-6-fluoro-1H-indazol-4-yl)oxy]-2-[(2-ethyl-pyridin-3-yl)oxy]pyrido[3,4-d]pyrimidin-4-yl}piperazin-1-yl)prop-2-en-1-one] | 0.06 | 52 |  |  | 
2 | C=CC(=O)N1CCN(c2nc(OC[C@H]3CCCN3C)nc3c(Oc4c(Cl)c(F)cc5[nH]ncc45)nccc23)CC1 [Example 17E, 1-[4-(8-[(5-chloro-6-fluoro-1H-indazol-4-yl)oxy]-2-{[(2R)-1-methylpyrrolidin-2-yl]methoxy}pyrido[3,4-d]pyrimidin-4-yl)piperazin-1-yl]prop-2-en-1-one] | 0.197 | 76 |  | 80 | 83
3 | C=CC(=O)N1CCN(c2ncnc3c(Oc4c(Cl)ccc5[nH]ncc45)nc(C)cc23)CC1 [Example 05A, 1-(4-{8-[(5-chloro-1H-indazol-4-yl)oxy]-6-methylpyrido[3,4-d]pyrimidin-4-yl}piperazin-1-yl)prop-2-en-1-one] | 8.41 |  |  |  | 12
4 | C=CC(=O)N1CCN(c2nc(OCc3ccccn3)nc3c(Oc4c(Cl)c(F)cc5[nH]ncc45)nccc23)CC1 [Example 08H, 1-(4-{8-[(5-chloro-6-fluoro-1H-indazol-4-yl)oxy]-2-(pyridin-2-ylmethoxy)pyrido[3,4-d]pyrimidin-4-yl}piperazin-1-yl)prop-2-en-1-one] | 0.491 | 36 |  |  | 
5 | C=CC(=O)N1CCN(c2nc(Oc3cccc4c3CCN(C)C4)nc3c(Oc4c(Cl)c(F)cc5[nH]ncc45)nccc23)CC1 [Example 22I, 1-(4-{8-[(5-chloro-6-fluoro-1H-indazol-4-yl)oxy]-2-[(2-methyl-1,2,3,4-tetrahydro-isoquinolin-5-yl)oxy]pyrido [3,4-d]pyrimidin-4-yl}piperazin-1-yl)prop-2-en-1-one] | 0.003 |  | 80 |  | 

More lines, now with the values ahead:

Row | IC50 (KRAS G12C) [µM] | MSRA (% modification) 5.0 μM 0.25 hr ([1]; 0.25 hr) [%] | MSRA (% modification) 5.0 μM 0.017 hr [1] [%] | MSRA (% modification) 10 μM 0.25 hr ([1]; 10 μM compound, 0.25 hr) [%] | MSRA (% modification) 10 μM 0.50 hr ([1]; 10 μM compound) [%] | SMILES
6 | 0.027 |  | 75 |  |  | C=CC(=O)N1CCN(c2nc(O[C@@H]3CN(C)C[C@H]3OC)nc3c(Oc4c(C)ccc5[nH]ncc45)nc(Cl)cc23)CC1 [Example 35G, 1-[4-(6-chloro-2-{[(3R,4R)-4-methoxy-1-methylpyrrolidin-3-yl]oxy}-8-[(5-methyl-1H-indazol-4-yl)oxy]pyrido[3,4-d]pyrimidin-4-yl)piperazin-1-yl]prop-2-en-1-one]
7 | 0.063 |  | 47 |  |  | C=CC(=O)N1CCN(c2nc(O[C@@H]3CCN(C)C[C@H]3C)nc3c(Oc4c(Cl)c(F)cc5[nH]ncc45)nc(Cl)cc23)CC1 (racemic) [Example 34G, rac-1-[4-(6-chloro-8-[(5-chloro-6-fluoro-1H-indazol-4-yl)oxy]-2-{[(3R,4R)-1,3-dimethylpiperidin-4-yl]oxy}pyrido[3,4-d]pyrimidin-4-yl)piperazin-1-yl]prop-2-en-1-one]
8 | 0.338 |  | 37 |  |  | C=CC(=O)N1CCN(c2nc(O[C@@H]3CN(C)C[C@H]3O)nc3c(Oc4c(Cl)c(F)cc5[nH]ncc45)nc(Cl)cc23)CC1 [Example 37G, 1-[4-(6-chloro-8-[(5-chloro-6-fluoro-1H-indazol-4-yl)oxy]-2-{[(3R,4R)-4-hydroxy-1-methylpyrrolidin-3-yl]oxy}pyrido[3,4-d]pyrimidin-4-yl)piperazin-1-yl]prop-2-en-1-one]
9 | 0.935 |  | 52 |  |  | C=CC(=O)N1CCN(c2nc(O[C@@H]3CN(C)C[C@H]3OC)nc3c(Oc4c(Cl)c(F)cc5[nH]ncc45)nccc23)[C@H](C)C1 [Example 34I, 1-[(3R)-4-(8-[(5-chloro-6-fluoro-1H-indazol-4-yl)oxy]-2-{[(3R,4R)-4-methoxy-1-methyl-pyrrolidin-3-yl]oxy}pyrido [3,4-d]pyrimidin-4-yl)-3-methyl-piperazin-1-yl]prop-2-en-1-one]
